Results taken from patent publication US20200129473A1, “USE OF ERIBULIN AND CYCLIN DEPENDENT KINASE INHIBITORS IN THE TREATMENT OF CANCER” (EISAI R&D MANAGEMENT CO., LTD., priority 2017, published 2020).
Like-named read-outs stand apart in the source and are kept apart here. Each block holds one compound with its values, some of them ahead of it.

Legend:
[1] = test system: panel of 12 human breast cancer cell lines; experiment: Cell Titer-Glo growth inhibition, statements for the whole panel
Protocol: MCF-7 human breast cancer cells were cultured in RPMI 1640 medium supplemented with 10% fetal bovine serum (FBS), 2 mM glutamine, 10 mM 4-(2-hydroxyethyl)-1-piperazineethanesulfonic acid (HEPES), 0.075% sodium bicarbonate, 100 units/mL sodium penicillin G, 100 μg/mL streptomycin sulfate and 25 μg/mL gentamicin. T-47D human breast cancer cells were cultured in RPMI 1640 medium supplemented with 10% FBS, 4.5 g/L glucose, 2 mM glutamine, 10 mM HEPES, 0.2 units/mL Insulin, 1 mM sodium pyruvate, 100 units/mL sodium penicillin G, 100 μg/mL streptomycin sulfate and 25 μg/mL gentamicin. ZR-75-1 human breast cancer cells were cultured in RPMI 1640 medium supplemented with 10% FBS, 4.5 g/L glucose, 2 mM glutamine, 10 mM HEPES, 1 mM sodium pyruvate, 100 units/mL sodium penicillin G, 100 μg/mL streptomycin sulfate and 25 μg/mL gentamicin. MDA-MB-134-VI human breast cancer cells were cultured in Leibovitz's L-15 medium supplemented with 20% FBS, 2 mM glutamine, 100 units/mL sodium penicillin G, 100 μg/mL streptomycin sulfate and 25 μg/mL gentamicin. MDA-MB-175-VII human breast cancer cells were cultured in Leibovitz's L-15 medium supplemented with 10% FBS, 2 mM glutamine, 10 mM HEPES, 100 units/mL sodium penicillin G, 100 μg/mL streptomycin sulfate and 25 μg/mL gentamicin. […]

[2] = test system: ZR-75-1 human breast cancer cells; experiment: Cell Titer-Glo growth inhibition, ZR-75-1; type: cell-based
[3] = test system: Hs578t human breast cancer cells; experiment: Cell Titer-Glo growth inhibition, Hs578t; type: cell-based; conditions: Hs-578T
[4] = test system: MDA-MB-231 human breast cancer cells; experiment: Cell Titer-Glo growth inhibition, MDA-MB-231; type: cell-based
[5] = test system: MDA-MB-415 human mammary gland/breast cancer cells; experiment: Cell Titer-Glo growth inhibition, MDA-MB-415; type: cell-based
[6] = test system: MDA-MB-436 human adenocarcinoma derived cancer cells; experiment: Cell Titer-Glo growth inhibition, MDA-MB-436; type: cell-based
[7] = test system: MCF-7 human breast cancer cells; experiment: Cell Titer-Glo growth inhibition, MCF-7; type: cell-based
[8] = test system: MDA-MB-175-VII human breast cancer cells; experiment: Cell Titer-Glo growth inhibition, MDA-MB-175VII; type: cell-based
[9] = test system: BT-549 human breast cancer cells; experiment: Cell Titer-Glo growth inhibition, BT-549; type: cell-based
[10] = test system: HCC70 human breast cancer cells; experiment: Cell Titer-Glo growth inhibition, HCC70; type: cell-based
[11] = test system: HCC1806 human breast cancer cells; experiment: Cell Titer-Glo growth inhibition, HCC1806; type: cell-based
[12] = test system: T-47D human breast cancer cells; experiment: Cell Titer-Glo growth inhibition, T-47D; type: cell-based; conditions: T47D
[13] = test system: MDA-MB-134-VI human breast cancer cells; experiment: Cell Titer-Glo growth inhibition, MDA-MB-134VI; type: cell-based
[14] = test system: OD-BRE-0745, an ER+, PR+, Her2− luminal B infiltrating ductal adenocarcinoma (patient-derived breast tumor); experiment: Antitumor activity in OD-BRE-0745 PDX model; type: in vivo, Swiss nude mice; conditions: 150 mg/kg palbociclib, contribution of eribulin masked (FIGS. 10 and 12)
Protocol: A statistical test (analysis of variance) was performed to test for homogeneity between groups.

[15] = 72 h, read-out: Mean IC50, single agent Eribulin

SMILES: C=C1C[C@@H]2CC[C@@]34C[C@H]5O[C@H]6[C@@H](O3)[C@H]3O[C@H](CC[C@@H]3O[C@H]6[C@H]5O4)CC(=O)C[C@@H]3[C@@H](OC)[C@@H](C[C@H](O)CN)O[C@H]3C[C@H]3O[C@@H](CC[C@@H]1O2)C[C@@H](C)C3=C [Eribulin]
- IC50 ([1]; Homo sapiens, read-out: IC50, single agent, overall statement): < 1 nM
- Potentiation of eribulin growth inhibition by palbociclib ([1]; all cell lines, constant dose of 10 μM or 1 μM of palbociclib): No potentiation effect
- IC50 ([2]; ZR-75-1, 72 h, read-out: Mean IC50, single agent Eribulin): > 1000 nM
- IC50 [3, 15]: 0.354 nM
- IC50 ([3]; read-out: Mean IC50 of eribulin dose response with constant 1 μM Palbociclib): 14.6 nM
- IC50 ([3]; read-out: Mean IC50 of eribulin dose response with constant 10 μM Palbociclib): 0.797 nM
- IC50 ([4]; MDA-MB-231, 72 h, read-out: Mean IC50, single agent Eribulin): 0.149 nM
- IC50 ([4]; MDA-MB-231, read-out: Mean IC50 of eribulin dose response with constant 1 μM Palbociclib): 1.45 nM
- IC50 ([5]; MDA-MB-415, 72 h, read-out: Mean IC50, single agent Eribulin): 0.403 nM
- IC50 ([6]; MDA-MB-436, 72 h, read-out: Mean IC50, single agent Eribulin): 0.86 nM
- IC50 ([6]; MDA-MB-436, read-out: Mean IC50 of eribulin dose response with constant 1 μM Palbociclib): 2.02 nM
- IC50 ([6]; MDA-MB-436, read-out: Mean IC50 of eribulin dose response with constant 10 μM Palbociclib): 6.25 nM
- IC50 ([7]; MCF7, 72 h, read-out: Mean IC50, single agent Eribulin): 0.253 nM
- IC50 ([7]; MCF7, read-out: Mean IC50 of eribulin dose response with constant 1 μM Palbociclib): 0.598 nM
- IC50 ([8]; Homo sapiens, MDA-MB-175-VII, 72 h, 72 h drug exposure, read-out: Mean IC50, single agent Eribulin): 0.12 nM
- IC50 ([8]; Homo sapiens, MDA-MB-175-VII, eribulin 3.8 pM to 1 μM, constant 10 μM palbociclib, read-out: Mean IC50 of eribulin dose response with constant 10 μM Palbociclib): 92.9 nM
- IC50 ([8]; eribulin 3.8 pM to 1 μM, constant 10 μM palbociclib, listed as Eribufin, read-out: Mean IC50 of eribulin dose response with constant 10 μM Palbociclib): 92.2 nM
- IC50 ([9]; BT-549, 72 h, read-out: Mean IC50, single agent Eribulin): 0.289 nM
- IC50 ([9]; BT-549, read-out: Mean IC50 of eribulin dose response with constant 1 μM Palbociclib): 0.374 nM
- IC50 ([9]; BT-549, read-out: Mean IC50 of eribulin dose response with constant 10 μM Palbociclib): 0.849 nM
- IC50 ([10]; HCC70, 72 h, read-out: Mean IC50, single agent Eribulin): 0.454 nM
- IC50 ([10]; HCC70, read-out: Mean IC50 of eribulin dose response with constant 1 μM Palbociclib): 0.377 nM
- IC50 ([10]; HCC70, read-out: Mean IC50 of eribulin dose response with constant 10 μM Palbociclib): 21.5 nM
- IC50 ([11]; HCC1806, 72 h, read-out: Mean IC50, single agent Eribulin): 0.142 nM
- IC50 ([11]; HCC1806, read-out: Mean IC50 of eribulin dose response with constant 1 μM Palbociclib): 0.273 nM
- IC50 [12, 15]: 0.188 nM
- IC50 ([13]; MDA-MB-134-VI, 72 h, read-out: Mean IC50, single agent Eribulin): 0.491 nM
- IC50 ([13]; MDA-MB-134-VI, read-out: Mean IC50 of eribulin dose response with constant 1 μM Palbociclib): 21 nM

- IC50 ([2]; ZR-75-1, 72 h drug exposure, read-out: Mean IC50, single agent Palbociclib): > 10000 nM
- IC50 ([3]; Hs578t, 72 h drug exposure, read-out: Mean IC50, single agent Palbociclib): > 10000 nM
- IC50 ([4]; MDA-MB-231, 72 h drug exposure, read-out: Mean IC50, single agent Palbociclib): 392 nM
- IC50 ([5]; MDA-MB-415, 72 h drug exposure, read-out: Mean IC50, single agent Palbociclib): 1630 nM
- IC50 ([6]; MDA-MB-436, 72 h drug exposure, read-out: Mean IC50, single agent Palbociclib): 2990 nM
- IC50 ([7]; MCF7, MCF-7, 72 h drug exposure, read-out: Mean IC50, single agent Palbociclib): > 10000 nM
- IC50 ([9]; BT-549, 72 h drug exposure, read-out: Mean IC50, single agent Palbociclib): > 10000 nM
- IC50 ([11]; HCC1806, 72 h drug exposure, read-out: Mean IC50, single agent Palbociclib): > 10000 nM
- IC50 ([12]; T-47D, 72 h drug exposure, read-out: Mean IC50, single agent Palbociclib): > 10000 nM
- IC50 ([13]; MDA-MB-134VI, 72 h drug exposure, read-out: Mean IC50, single agent Palbociclib): 2440 nM
SMILES: CC(=O)c1c(C)c2cnc(Nc3ccc(N4CCNCC4)cn3)nc2n(C2CCCC2)c1=O [Palbociclib, 6-acetyl-8-cyclopentyl-5-methyl-2-[(5-piperazin-1-ylpyridin-2-yl)amino]pyrido[2,3-d]pyrimidin-7-one]
- Tumor response at the higher amount of palbociclib [14]: overwhelmed the response
- IC50 ([10]; HCC70, 72 h drug exposure, read-out: Mean IC50, single agent Palbociclib): > 10000 nM
